The test system of assay [1] is FPR1. The experiment in a line: Competition binding: inhibition of WK(FITC)YMVm binding to FPR1 (wild type and mutants), HEK293F cells. The arrangement: species or system human. To be noted: FPR1 F81L, F102H, Y257F and their combination. As to the method: (§1) The genes of wild-type FPR1 and FPR2 and mutants with a Flag tag at the N termini were cloned into pTT5 vector (Invitrogen) and expressed in HEK293F cells (Invitrogen). Cells were harvested 48 h post transfection with 1 μg ml^−1 plasmid. Cell-surface expression of the receptors was measured by mixing 10 μl cells with 15 μl of TBS buffer supplemented with 4% BSA, 20% (v/v) viability-staining solution 7-AAD (Invitrogen, Cat#00-6993-50), and 0.1% (v/v) anti-FLAG M2-FITC antibody (Sigma, Cat#F4049) at 4 °C for 20 min. After incubation, 175 μl of TBS buffer was added and the fluorescent signal was measured using a flow-cytometry reader (Guava easyCyte HT, Millipore). Then, the cells were washed and resuspended to a final concentration of 1 × 10^6 cells per ml in Hanks’ Balanced Salt Solution (HBSS) buffer supplemented with 0.5% bovine serum albumin (BSA) and 20 mM HEPES, pH 7.4.
(§2) The mean fluorescent intensity of each well was then read by the FCM reader. Total binding and nonspecific binding were measured in the absence and presence of the unlabeled ligand (200 μM WKYMVm), respectively. […] Mean fluorescent-intensity values were measured by flow cytometry. Data were analyzed using Prism 8.0 (GraphPad software).

Assay [2] deals with FPR2. To be noted: cited from earlier work. An excerpt:
The role of these residues in determining ligand selectivity was investigated by mutagenesis studies.

In assay [3] the target is T1, FPR2 (Homo sapiens, UniProt P25090).
T1 construct: expressed in transfected cells; host or cells: HEK293F cells, pTT5 vector, co-transfected with GαΔ6qi4myr (1:2 w/w)
T1 sequence (P25090 1-351): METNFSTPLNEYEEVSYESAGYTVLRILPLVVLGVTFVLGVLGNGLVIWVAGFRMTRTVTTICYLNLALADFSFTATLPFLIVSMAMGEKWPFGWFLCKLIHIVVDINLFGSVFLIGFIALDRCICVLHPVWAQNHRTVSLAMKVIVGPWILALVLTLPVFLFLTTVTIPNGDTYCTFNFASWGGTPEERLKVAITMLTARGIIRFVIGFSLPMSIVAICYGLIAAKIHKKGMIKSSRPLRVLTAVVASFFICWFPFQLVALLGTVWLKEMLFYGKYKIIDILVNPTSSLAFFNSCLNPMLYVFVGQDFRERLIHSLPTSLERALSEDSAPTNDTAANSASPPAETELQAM
The experiment in a line: Competition binding: inhibition of WK(FITC)YMVm binding to FPR2 (wild type and mutants), HEK293F cells. The conditions noted are these: FPR2 WT, mean ± SEM. As to the method: as §1, §2

The target in assay [4] is T2, FPR2 (Homo sapiens, UniProt P25090, S211L).
T2 construct: expressed in transfected cells; host or cells: HEK293F cells, pTT5 vector
Described as above. To be noted: FPR2 Construct 2, mean ± SEM. As to the method:
as §1, §2

For assay [5], the target named is T1, FPR2. As to the kind of experiment: Inositol-phosphate (IP) accumulation assay, FPR2 (wild type and mutants) with chimeric GαΔ6qi4myr in HEK293F cells. In kind it is cell-based. To be noted: FPR2 WT; mean ± SEM; SEM. Here is the method: Flag-tagged wild-type FPR1 and FPR2 and mutants were cloned into the pTT5 vector and expressed in HEK293F cells. Cells were cotransfected with the plasmids of receptor and a chimeric Gα protein GαΔ6qi4myr, which redirects the Gαi signaling pathway to the Gαq phospholipase-C pathway, at a ratio of 1:2 (w/w), and were harvested 48 h post transfection. The cell-surface expression was measured as described above.
The IP-One Gq assay kit (Cisbio Bioassays, 62IPAPEB) was used to measure the peptide agonist-induced IP production. […] Then, the cells were supplemented with 3 μl cryptate-labeled anti-IP1 monoclonal antibody (1:20 diluted in lysis and detection buffer) and 3 μl d2-labeled IP1, and incubated at room temperature for another 1 h. […] The accumulation of IP1, EC50, and pEC50 were calculated using nonlinear regression (curve fit) according to a standard dose–response curve in GraphPad Prism 8.0 (GraphPad software).

Where a SMILES comes first, the peptide text is derived from it. The star is where a group is joined. For = O=C*

T2 sequence (P25090 with tags, fused parts or gaps S211L): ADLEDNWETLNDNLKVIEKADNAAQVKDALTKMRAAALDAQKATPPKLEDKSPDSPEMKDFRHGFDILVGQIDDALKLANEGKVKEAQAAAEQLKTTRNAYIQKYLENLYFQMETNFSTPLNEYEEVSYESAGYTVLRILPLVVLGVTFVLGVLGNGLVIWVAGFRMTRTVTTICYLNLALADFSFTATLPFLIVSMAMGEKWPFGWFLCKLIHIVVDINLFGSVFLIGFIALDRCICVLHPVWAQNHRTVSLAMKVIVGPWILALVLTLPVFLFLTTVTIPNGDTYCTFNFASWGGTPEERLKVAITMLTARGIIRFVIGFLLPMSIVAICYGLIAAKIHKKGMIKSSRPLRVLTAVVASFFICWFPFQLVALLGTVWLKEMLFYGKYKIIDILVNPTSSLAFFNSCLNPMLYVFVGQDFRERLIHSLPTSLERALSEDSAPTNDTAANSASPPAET

`CSCC[C@H](NC=O)C(=O)N[C@@H](CC(C)C)C(=O)N[C@@H](Cc1ccccc1)C(=O)O` [fMLF, N-formyl–Met–Leu–Phe]: in assay [1], the “effect of mutations on binding affinity (in words)” value is listed as “little effect on the binding affinity”. For the same compound, the “agonism at FPR2 (in words)” value in assay [2] is given as “weak agonist”.
As usually defined, the Ki is a dissociation constant, usually derived from enzyme kinetics or from competition with a known ligand. Read a high Ki as a looser hold on the target. `CC[C@H](C)[C@H](NC(=O)[C@H](CCC(=O)O)NC(=O)[C@H](CO)NC(=O)[C@@H](NC(=O)[C@H](C)NC(=O)[C@H](CC(C)C)NC(=O)[C@H](CC(C)C)NC(=O)[C@H](CC(C)C)NC(=O)[C@H](CS)NC(=O)[C@H](CO)NC(=O)[C@H](Cc1ccccc1)NC(=O)CNC(=O)[C@H](CCCNC(=N)N)NC(=O)[C@@H]1CCCN1C(=O)[C@H](C)NC(=O)[C@H](CCSC)NC=O)[C@@H](C)O)C(=O)N[C@@H](CC(=O)O)C(=O)N[C@@H](CC(C)C)C(=O)N1CCC[C@H]1C(=O)N[C@H](C(=O)N[C@@H](CCCCN)C(=O)N[C@@H](CCCNC(=N)N)C(=O)N[C@@H](CCCNC(=N)N)C(=O)N[C@@H](C)C(=O)O)C(C)C` [L12A] (For-MAPRGFSCLLLATSEIDLPVKRRA-OH) showed a Ki in assay [3] of 832 nM. That is a sub-micromolar value.
Same read-out and setting: in the case of `CC[C@H](C)[C@H](NC(=O)[C@H](CCC(=O)O)NC(=O)[C@H](CO)NC(=O)[C@@H](NC(=O)[C@H](CC(C)C)NC(=O)[C@H](CC(C)C)NC(=O)[C@H](CC(C)C)NC(=O)[C@H](CC(C)C)NC(=O)[C@H](CS)NC(=O)[C@H](CO)NC(=O)[C@H](C)NC(=O)CNC(=O)[C@H](CCCNC(=N)N)NC(=O)[C@@H]1CCCN1C(=O)[C@H](C)NC(=O)[C@H](CCSC)NC=O)[C@@H](C)O)C(=O)N[C@@H](CC(=O)O)C(=O)N[C@@H](CC(C)C)C(=O)N1CCC[C@H]1C(=O)N[C@H](C(=O)N[C@@H](CCCCN)C(=O)N[C@@H](CCCNC(=N)N)C(=O)N[C@@H](CCCNC(=N)N)C(=O)N[C@@H](C)C(=O)O)C(C)C` [F6A] (For-MAPRGASCLLLLTSEIDLPVKRRA-OH) it was 100 nM.
On the same count and under the same terms, in the case of `CC[C@H](C)[C@H](NC(=O)[C@H](CCC(=O)O)NC(=O)[C@H](CO)NC(=O)[C@@H](NC(=O)[C@H](CC(C)C)NC(=O)[C@H](C)NC(=O)[C@H](CC(C)C)NC(=O)[C@H](CC(C)C)NC(=O)[C@H](CS)NC(=O)[C@H](CO)NC(=O)[C@H](Cc1ccccc1)NC(=O)CNC(=O)[C@H](CCCNC(=N)N)NC(=O)[C@@H]1CCCN1C(=O)[C@H](C)NC(=O)[C@H](CCSC)NC=O)[C@@H](C)O)C(=O)N[C@@H](CC(=O)O)C(=O)N[C@@H](CC(C)C)C(=O)N1CCC[C@H]1C(=O)N[C@H](C(=O)N[C@@H](CCCCN)C(=O)N[C@@H](CCCNC(=N)N)C(=O)N[C@@H](CCCNC(=N)N)C(=O)N[C@@H](C)C(=O)O)C(C)C` [L11A] (For-MAPRGFSCLLALTSEIDLPVKRRA-OH) it was 631 nM.
As for `CC[C@H](C)[C@H](NC(=O)[C@H](CCC(=O)O)NC(=O)[C@H](CO)NC(=O)[C@@H](NC(=O)[C@H](CC(C)C)NC(=O)[C@H](CC(C)C)NC(=O)[C@H](CC(C)C)NC(=O)[C@H](CC(C)C)NC(=O)[C@H](CS)NC(=O)[C@H](CO)NC(=O)[C@H](Cc1ccccc1)NC(=O)CNC(=O)[C@H](CCCNC(=N)N)NC(=O)[C@H](C)NC(=O)[C@H](C)NC(=O)[C@H](CCSC)NC=O)[C@@H](C)O)C(=O)N[C@@H](CC(=O)O)C(=O)N[C@@H](CC(C)C)C(=O)N1CCC[C@H]1C(=O)N[C@H](C(=O)N[C@@H](CCCCN)C(=O)N[C@@H](CCCNC(=N)N)C(=O)N[C@@H](CCCNC(=N)N)C(=O)N[C@@H](C)C(=O)O)C(C)C` [P3A] (For-MAARGFSCLLLLTSEIDLPVKRRA-OH), the Ki in assay [3] is 813 nM.
For the compound “fMLFK [formylated tetrapeptide with a basic C-terminal residue]”, the “binding to FPR2 (in words)” value in assay [2] (compared with fMLFE) is recorded as “more favorable for binding to FPR2”.
With `CC[C@H](C)[C@H](NC(=O)[C@H](CCC(=O)O)NC(=O)[C@H](CO)NC(=O)[C@@H](NC(=O)[C@H](CC(C)C)NC(=O)[C@H](CC(C)C)NC(=O)[C@H](CC(C)C)NC(=O)[C@H](CC(C)C)NC(=O)[C@H](CS)NC(=O)[C@H](CO)NC(=O)[C@H](Cc1ccccc1)NC(=O)CNC(=O)[C@H](CCCNC(=N)N)NC(=O)[C@@H]1CCCN1C(=O)[C@H](Cc1c[nH]c2ccccc12)NC(=O)[C@H](CCSC)NC=O)[C@@H](C)O)C(=O)N[C@@H](CC(=O)O)C(=O)N[C@@H](CC(C)C)C(=O)N1CCC[C@H]1C(=O)N[C@H](C(=O)N[C@@H](CCCCN)C(=O)N[C@@H](CCCNC(=N)N)C(=O)N[C@@H](CCCNC(=N)N)C(=O)N[C@@H](C)C(=O)O)C(C)C` [A2W] (For-MWPRGFSCLLLLTSEIDLPVKRRA-OH), in assay [3], affinity was put at a Ki of 46.8 nM.
In assay [3], `CC[C@H](C)[C@H](NC(=O)[C@H](CCC(=O)O)NC(=O)[C@H](CO)NC(=O)[C@@H](NC(=O)[C@H](CC(C)C)NC(=O)[C@H](CC(C)C)NC(=O)[C@H](CC(C)C)NC(=O)[C@H](CC(C)C)NC(=O)[C@H](CS)NC(=O)[C@H](CO)NC(=O)[C@H](Cc1ccccc1)NC(=O)CNC(=O)[C@H](C)NC(=O)[C@@H]1CCCN1C(=O)[C@H](C)NC(=O)[C@H](CCSC)NC=O)[C@@H](C)O)C(=O)N[C@@H](CC(=O)O)C(=O)N[C@@H](CC(C)C)C(=O)N1CCC[C@H]1C(=O)N[C@H](C(=O)N[C@@H](CCCCN)C(=O)N[C@@H](CCCNC(=N)N)C(=O)N[C@@H](CCCNC(=N)N)C(=O)N[C@@H](C)C(=O)O)C(C)C` [R4A] (For-MAPAGFSCLLLLTSEIDLPVKRRA-OH) showed a Ki of 282 nM.
As to Humanin [HN], in assay [2], the “agonistic activity FPR2 versus FPR1 (in words)” value is “much higher agonistic activity at FPR2 than at FPR1” and the “fold higher binding affinity to FPR2 than Aβ42” value is “over 15 fold”.
By EC50 is commonly meant the concentration that produces a half-maximal response. The low end stands for higher potency in that assay, the high end for lower potency in that assay. As to `CC[C@H](C)[C@H](NC(=O)[C@H](CC(N)=O)NC(=O)[C@@H](NC(=O)[C@H](Cc1ccccc1)NC(=O)[C@H](Cc1ccc(O)cc1)NC(=O)[C@H](CCSC)NC=O)[C@@H](C)CC)C(=O)N[C@@H](CC(C)C)C(=O)N[C@H](C(=O)N[C@@H](CC(C)C)C(=O)O)[C@@H](C)O` [fM9] (For-MYFINILTL-OH), the Ki in assay [3] was 1410 nM; in assay [4], 2630 nM. In assay [5], this compound had an EC50 of 813 nM.

Source of the values: article PMC8976073 (Nature Communications, 2022).
